ChEMBL document CHEMBL3804756 (J Med Chem, 2016)

Tests used:
[1] = molecular target: Histamine H1 receptor (Homo sapiens, UniProt P35367); experiment: Displacement of [3H]mepyramine from human histamine H1 receptor expressed in sf9 cell membrane co-expressing RGS4 incubated for 60 mins by liquid scintillation counting method
[2] = molecular target: T1, Histamine H3 receptor (Homo sapiens, UniProt Q9Y5N1); experiment: Displacement of [3H]N-alpha-methylhistamine from human histamine H3 receptor expressed in sf9 cell membrane co-expressing mammalian Galphai2 and Gbeta1gamma2 incubated for 60 mins by liquid scintillation counting method
T1 sequence (Q9Y5N1 whole entry): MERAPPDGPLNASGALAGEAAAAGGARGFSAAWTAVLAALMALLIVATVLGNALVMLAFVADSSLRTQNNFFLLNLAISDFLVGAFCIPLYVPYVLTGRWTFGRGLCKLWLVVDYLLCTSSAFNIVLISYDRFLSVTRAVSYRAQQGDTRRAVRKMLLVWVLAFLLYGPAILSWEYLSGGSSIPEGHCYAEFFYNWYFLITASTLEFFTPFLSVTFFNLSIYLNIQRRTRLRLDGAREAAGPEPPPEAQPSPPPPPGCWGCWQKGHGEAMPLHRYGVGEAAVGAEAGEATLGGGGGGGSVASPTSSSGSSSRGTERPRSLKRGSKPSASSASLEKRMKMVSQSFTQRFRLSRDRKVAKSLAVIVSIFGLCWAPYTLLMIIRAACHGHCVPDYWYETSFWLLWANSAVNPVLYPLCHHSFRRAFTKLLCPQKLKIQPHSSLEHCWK

[3] = molecular target: T2, Histamine H4 receptor (Homo sapiens, UniProt Q9H3N8); experiment: Agonist activity at human histamine H4 receptor expressed in sf9 cell membrane co-expressing mammalian Galphai2 and Gbeta1gamma2 incubated for 90 mins by [35S]GTPgammaS binding assay; assay type: functional
T2 sequence (Q9H3N8 whole entry): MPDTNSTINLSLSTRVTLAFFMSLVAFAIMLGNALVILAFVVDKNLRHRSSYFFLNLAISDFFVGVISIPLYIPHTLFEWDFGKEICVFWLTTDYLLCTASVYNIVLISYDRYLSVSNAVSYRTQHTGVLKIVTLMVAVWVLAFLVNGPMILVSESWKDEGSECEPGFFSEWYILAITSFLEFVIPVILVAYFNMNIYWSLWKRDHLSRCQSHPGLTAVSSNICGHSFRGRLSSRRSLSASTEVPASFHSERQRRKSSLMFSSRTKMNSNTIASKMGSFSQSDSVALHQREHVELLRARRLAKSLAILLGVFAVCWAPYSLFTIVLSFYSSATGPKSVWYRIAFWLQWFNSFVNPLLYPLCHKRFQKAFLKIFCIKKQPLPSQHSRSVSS

[4] = molecular target: T2, Histamine H4 receptor; experiment: Displacement of [3H]UR-PI294 from human histamine H4 receptor expressed in sf9 cell membrane co-expressing mammalian Galphai2 and Gbeta1gamma2 incubated for 60 mins by liquid scintillation counting method
[5] = molecular target: T3, Histamine H2 receptor (Homo sapiens, UniProt P25021); experiment: Antagonist activity at human histamine H2 receptor expressed in sf9 cell membrane co-expressing Gsalphas assessed as inhibition of histamine-induced [35S]GTPgammaS binding incubated for 90 mins; assay type: functional
T3 sequence (P25021 whole entry): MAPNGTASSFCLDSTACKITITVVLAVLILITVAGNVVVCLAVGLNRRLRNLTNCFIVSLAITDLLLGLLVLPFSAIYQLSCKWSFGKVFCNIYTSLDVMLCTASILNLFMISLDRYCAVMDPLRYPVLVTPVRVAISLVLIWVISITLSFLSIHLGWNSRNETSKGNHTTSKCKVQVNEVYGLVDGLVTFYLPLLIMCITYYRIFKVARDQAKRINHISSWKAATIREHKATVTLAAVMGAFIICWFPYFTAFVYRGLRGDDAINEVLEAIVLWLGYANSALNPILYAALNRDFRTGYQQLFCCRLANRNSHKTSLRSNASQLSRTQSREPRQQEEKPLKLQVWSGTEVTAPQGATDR

[6] = molecular target: T3, Histamine H2 receptor; experiment: Intrinsic activity at human histamine H2 receptor expressed in sf9 cell membrane co-expressing Gsalphas at 10 uM incubated for 90 mins by [35S]GTPgammaS binding assay relative to histamine; assay type: functional
[7] = molecular target: T1, Histamine H3 receptor; experiment: Intrinsic activity at human histamine H3 receptor expressed in sf9 cell membrane co-expressing mammalian Galphai2 and Gbeta1gamma2 at 10 uM incubated for 90 mins by [35S]GTPgammaS binding assay relative to histamine; assay type: functional
[8] = molecular target: T1, Histamine H3 receptor; experiment: Antagonist activity at human histamine H3 receptor expressed in sf9 cell membrane co-expressing mammalian Galphai2 and Gbeta1gamma2 assessed as inhibition of histamine-induced [35S]GTPgammaS binding incubated for 90 mins; assay type: functional
[9] = molecular target: T3, Histamine H2 receptor; experiment: Displacement of [3H]tiotidine from human histamine H2 receptor expressed in sf9 cell membrane co-expressing Gsalphas incubated for 60 mins by liquid scintillation counting method
[10] = molecular target: T1, Histamine H3 receptor; experiment: Agonist activity at human histamine H3 receptor expressed in sf9 cell membrane co-expressing mammalian Galphai2 and Gbeta1gamma2 incubated for 90 mins by [35S]GTPgammaS binding assay; assay type: functional
[11] = molecular target: T4, Histamine H4 receptor (Mus musculus) (UniProt Q91ZY2); experiment: Intrinsic activity at mouse SF-His6-tagged histamine H4 receptor expressed in HEK293 cells assessed as inhibition of forskolin-stimulated response incubated for 5 hrs by luciferase reporter gene assay relative to histamine; assay type: cell-based
T4 sequence (whole entry): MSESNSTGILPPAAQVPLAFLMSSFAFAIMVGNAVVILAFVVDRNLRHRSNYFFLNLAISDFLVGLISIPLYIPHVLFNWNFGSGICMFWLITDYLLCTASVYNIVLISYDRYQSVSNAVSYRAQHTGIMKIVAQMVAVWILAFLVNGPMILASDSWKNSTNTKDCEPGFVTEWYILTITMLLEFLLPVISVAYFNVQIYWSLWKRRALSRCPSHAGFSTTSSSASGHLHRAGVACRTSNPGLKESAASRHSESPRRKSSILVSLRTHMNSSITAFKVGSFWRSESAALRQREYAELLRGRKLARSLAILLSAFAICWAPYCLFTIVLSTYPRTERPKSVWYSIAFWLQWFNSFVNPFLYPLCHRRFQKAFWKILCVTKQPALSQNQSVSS

Histamine H1 receptor, sequence (P35367 whole entry): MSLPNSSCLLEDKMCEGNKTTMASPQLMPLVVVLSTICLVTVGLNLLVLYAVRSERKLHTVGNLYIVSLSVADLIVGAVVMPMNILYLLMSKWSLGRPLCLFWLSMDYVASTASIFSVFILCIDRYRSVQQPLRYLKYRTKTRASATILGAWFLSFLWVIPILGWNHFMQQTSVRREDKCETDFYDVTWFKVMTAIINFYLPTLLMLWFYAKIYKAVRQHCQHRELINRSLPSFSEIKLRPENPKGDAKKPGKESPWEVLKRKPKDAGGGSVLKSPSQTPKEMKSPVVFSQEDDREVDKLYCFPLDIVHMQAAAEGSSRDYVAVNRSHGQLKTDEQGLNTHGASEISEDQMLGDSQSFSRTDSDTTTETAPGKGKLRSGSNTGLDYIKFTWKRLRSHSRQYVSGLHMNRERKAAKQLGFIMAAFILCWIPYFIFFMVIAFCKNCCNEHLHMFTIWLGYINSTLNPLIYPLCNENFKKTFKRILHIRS

Row | Compound | Ki [1] | Ki [2] | EC50 [3] | Ki [4] | Kb [5] | Intrinsic activity [6] | Intrinsic activity [7] | Kb [8] | Ki [9] | EC50 [10] | Ki ([1]; sf9) | Intrinsic activity [11]
1 | N#C/N=C(/NCCSc1ccccc1)NC[C@@H]1CC[C@H](c2c[nH]cn2)C1 (racemic) | 3.8 µM | 1.35 µM | 0.129 µM | 0.25 µM | – | – | – | – | – | – | – | –
2 | CN/C(=N\C#N)NC[C@H]1CC[C@H](c2c[nH]cn2)C1 (racemic) [listing 1 of 2 here] | – | – | – | – | > 10 µM | 0 | -0.46 | – | – | – | – | –
3 | N#C/N=C(/NCCCc1ccccc1)NC[C@@H]1CC[C@H](c2c[nH]cn2)C1 (racemic) | 9.35 µM | – | 0.372 µM | – | > 10 µM | 0 | 0 | 0.07 µM | – | – | – | –
4 | N#C/N=C(/NCCSc1ccccc1)NC[C@H]1CC[C@@H](c2c[nH]cn2)C1 | 6.78 µM | 0.745 µM | 0.549 µM | 0.29 µM | > 10 µM | 0 | -0.34 | 0.528 µM | 7.36 µM | – | – | –
5 | N#C/N=C(/NCCCCc1c[nH]cn1)NCCSc1ccccc1 | – | – | – | – | – | 0 | -0.52 | – | – | 0.72 µM | – | –
6 | N#C/N=C(/NCCNc1ccccc1)NC[C@@H]1CC[C@H](c2c[nH]cn2)C1 (racemic) | > 10 µM | – | – | – | > 10 µM | 0 | 0 | 0.402 µM | – | – | – | –
7 | CN/C(=N\C#N)NC[C@@H]1CC[C@H](c2c[nH]cn2)C1 [listing 1 of 2 here] | – | – | – | – | > 10 µM | 0 | 0.61 | – | – | – | – | –
8 | CC(C)CN/C(=N/C#N)NC[C@H]1CC[C@H](c2c[nH]cn2)C1 (racemic) | 8.75 µM | – | 0.015 µM | – | > 10 µM | 0 | 0.54 | – | – | 0.578 µM | – | –
9 | N#C/N=C(/NCCSc1ccccc1)N[C@H]1CC[C@H](c2c[nH]cn2)CC1 | – | – | – | – | – | – | – | 0.18 µM | – | – | – | –
10 | CN1CCN(C(=O)c2cc3cc(Cl)ccc3[nH]2)CC1 | – | – | – | – | – | – | -0.56 | – | – | – | – | –
11 | S=C(NC1CCCCC1)N1CCC(c2cnc[nH]2)CC1 | – | – | – | – | – | – | -0.59 | – | – | – | – | –
12 | N#C/N=C(\NC[C@@H]1CC[C@H](c2c[nH]cn2)C1)NC1CC1 (racemic) | > 10 µM | – | 0.245 µM | – | > 10 µM | 0 | 0.28 | – | – | 1.53 µM | – | –
13 | CN/C(=N\C#N)NC[C@H]1CC[C@H](c2c[nH]cn2)C1 (racemic) [listing 2 of 2 here] | > 10 µM | 0.83 µM | 0.206 µM | 0.24 µM | – | – | – | – | – | 0.37 µM | – | –
14 | N#C/N=C(/NCCSc1ccccc1)N[C@H]1CC[C@@H](c2c[nH]cn2)CC1 | – | – | 0.11 µM | – | – | – | – | 1.9 µM | – | – | – | –
15 | N#C/N=C(\NC[C@H]1CC[C@H](c2c[nH]cn2)C1)NC1CC1 (racemic) | > 10 µM | – | 0.23 µM | – | > 10 µM | 0 | 0.36 | – | – | > 10 µM | – | –
16 | CN/C(=N\C#N)NC[C@@H]1CC[C@H](c2c[nH]cn2)C1 [listing 2 of 2 here] | – | 0.48 µM | 0.119 µM | 0.12 µM | – | – | – | – | > 10 µM | 0.212 µM | > 10 µM | –

Row | Compound | Ki [1] | Ki [2] | EC50 [3] | Ki [4] | Kb [5] | Intrinsic activity [6] | Intrinsic activity [7] | Kb [8] | Ki [9] | EC50 [10] | Ki ([1]; sf9) | Intrinsic activity [11]
17 | N#C/N=C(/NCCSc1ccccc1)NC[C@@H]1CC[C@H](c2c[nH]cn2)C1 [listing 1 of 2 here] | – | – | – | – | > 10 µM | 0 | -0.21 | 0.718 µM | – | – | – | –
18 | CCC(=O)/N=C(\N)NCCCc1c[nH]cn1 | – | – | – | – | – | 0.8 | 0.4 | – | – | – | – | –
19 | N#C/N=C(/NCCCc1ccccc1)NC[C@H]1CC[C@H](c2c[nH]cn2)C1 (racemic) | > 10 µM | – | 0.125 µM | – | > 10 µM | 0 | -0.19 | 0.325 µM | – | – | – | –
20 | N#C/N=C(/NCCOc1ccccc1)NC[C@@H]1CC[C@H](c2c[nH]cn2)C1 (racemic) | > 10 µM | – | – | – | > 10 µM | 0 | 0 | 0.328 µM | – | – | – | –
21 | CC(C)CN/C(=N/C#N)NC[C@@H]1CC[C@H](c2c[nH]cn2)C1 (racemic) | 8.35 µM | – | 0.202 µM | – | > 10 µM | 0 | 0.5 | – | – | 0.858 µM | – | –
22 | N#C/N=C(/NCCSc1ccccc1)NC[C@H]1CC[C@H](c2c[nH]cn2)C1 | – | – | – | – | > 10 µM | 0 | 0 | 1.15 µM | – | – | – | 0.67
23 | CN/C(=N\C#N)NC[C@H]1CC[C@@H](c2c[nH]cn2)C1 | > 10 µM | 9.5 µM | 2.68 µM | 3.5 µM | > 10 µM | 0 | -0.14 | 2.81 µM | > 10 µM | – | – | –
24 | CN/C(=N\C#N)NC[C@@H]1CC[C@H](c2c[nH]cn2)C1 (racemic) [listing 1 of 2 here] | > 10 µM | 0.86 µM | 0.111 µM | 0.155 µM | – | – | – | – | – | 0.547 µM | – | –
25 | N#C/N=C(/NCCSc1ccccc1)NC[C@H]1CC[C@H](c2c[nH]cn2)C1 (racemic) | 6.08 µM | 1.23 µM | 0.014 µM | 0.099 µM | – | – | – | – | – | – | – | –
26 | N#C/N=C(/NCCOc1ccccc1)NC[C@H]1CC[C@H](c2c[nH]cn2)C1 (racemic) | > 10 µM | – | 0.524 µM | – | > 10 µM | 0 | 0 | 0.54 µM | – | – | – | –
27 | Cc1nc[nH]c1CCN [4-METHYLHISTAMINE] | – | – | – | – | – | 1 | 0.7 | – | – | 12.4 µM | – | –
28 | CN/C(=N\C#N)NC[C@H]1CC[C@H](c2c[nH]cn2)C1 | – | – | – | – | > 10 µM | 0 | 0.59 | – | – | – | – | 0.96
29 | N#C/N=C(/NCCNc1ccccc1)NC[C@H]1CC[C@H](c2c[nH]cn2)C1 (racemic) | > 10 µM | – | – | – | > 10 µM | 0 | 0 | 0.408 µM | – | – | – | –
30 | N#C/N=C(/NCCSc1ccccc1)NC[C@@H]1CC[C@H](c2c[nH]cn2)C1 [listing 2 of 2 here] | 3.05 µM | 0.87 µM | 0.293 µM | 0.18 µM | – | – | – | – | 7.25 µM | – | – | –
31 | CN/C(=N\C#N)NC[C@@H]1CC[C@H](c2c[nH]cn2)C1 (racemic) [listing 2 of 2 here] | – | – | – | – | > 10 µM | 0 | 0.51 | – | – | – | – | –
